This is an account of results in ChEMBL document CHEMBL5724914, “Linking interpersonal differences in gut microbiota composition and drug biotransformation activity” (2024).

The conditions of series [1]: human gut metagenome, 24 h, 2 µM.
Series [2] in a line: The drug is tested on WLS-370 corresponding to human gut metagenome with ENA study accession number: PRJEB37062 and ENA sample accession number: ERS12561793 for biotransformation under anaerobic condition. The drug concentrations were measured over 9 timepoints collected between 0 and 24 hours of incubation by liquid-chromatography-coupled mass spectrometry (LC–MS). Particulars: 2 µM.

Series [3] can be described thus: The drug is tested on WLS-090 corresponding to human gut metagenome with ENA study accession number: PRJEB37062 and ENA sample accession number: ERS12561753 for biotransformation under anaerobic condition. The drug concentrations were measured over 9 timepoints collected between 0 and 24 hours of incubation by liquid-chromatography-coupled mass spectrometry (LC–MS). Particulars: 2 µM.

The conditions of series [4]: human gut metagenome, 24 h, 2 µM. This is another data set of the same source.
For series [5] the following is noted: human gut metagenome, 24 h, 2 µM. The source holds these as a separate data set.
The nature of series [6]: The drug is tested on Z-004 corresponding to metagenome with ENA study accession number: PRJEB37062 and ENA sample accession number: ERS12561804 for biotransformation under anaerobic condition. The drug concentrations were measured over 9 timepoints collected between 0 and 24 hours of incubation by liquid-chromatography-coupled mass spectrometry (LC–MS). Particulars: 2 µM.

Series [7] in a line: The drug is tested on WLS-086 corresponding to human gut metagenome with ENA study accession number: PRJEB37062 and ENA sample accession number: ERS12561752 for biotransformation under anaerobic condition. The drug concentrations were measured over 9 timepoints collected between 0 and 24 hours of incubation by liquid-chromatography-coupled mass spectrometry (LC–MS). Particulars: 2 µM.

The conditions of series [8]: human gut metagenome, 24 h, 2 µM. This is another data set of the same source.
The conditions of series [9]: human gut metagenome, 24 h, 2 µM. The source holds these as a separate data set.
The conditions of series [10]: human gut metagenome, 24 h, 2 µM. This is another data set of the same source.
Series [11] in a line: The drug is tested on Z-009 corresponding to pig gut metagenome with ENA study accession number: PRJEB37062 and ENA sample accession number: ERS12561809 for biotransformation under anaerobic condition. The drug concentrations were measured over 9 timepoints collected between 0 and 24 hours of incubation by liquid-chromatography-coupled mass spectrometry (LC–MS). Particulars: 2 µM.

For series [12] the following is noted: human gut metagenome, 24 h, 2 µM. The source holds these as a separate data set.
The conditions of series [13]: human gut metagenome, 24 h, 2 µM. The source holds these as a separate data set.
For series [14] the following is noted: human gut metagenome, 24 h, 2 µM. This is another data set of the same source.
The conditions of series [15]: human gut metagenome, 24 h, 2 µM. This is another data set of the same source.
The conditions of series [16]: human gut metagenome, 24 h, 2 µM. This is another data set of the same source.
The nature of series [17]: The drug is tested on Z-023 corresponding to metagenome with ENA study accession number: PRJEB37062 and ENA sample accession number: ERS12561822 for biotransformation under anaerobic condition. The drug concentrations were measured over 9 timepoints collected between 0 and 24 hours of incubation by liquid-chromatography-coupled mass spectrometry (LC–MS). Particulars: 2 µM.

Series [18] can be described thus: The drug is tested on Z-011 corresponding to mouse gut metagenome with ENA study accession number: PRJEB37062 and ENA sample accession number: ERS12561811 for biotransformation under anaerobic condition. The drug concentrations were measured over 9 timepoints collected between 0 and 24 hours of incubation by liquid-chromatography-coupled mass spectrometry (LC–MS). Conditions: 2 µM.
Further: call rule not given here.

With `CCC1(c2ccc(N)cc2)CCC(=O)NC1=O` (configuration not stated) [AMINOGLUTETHIMIDE], the “Bacterial Biotransformation” value in [1], in [2], in series [3], in [4], in series [5] and in series [6] was “Compound NOT metabolized” each time. For the same compound, the “Bacterial Biotransformation” value in series [7] was “Compound NOT metabolized”; in series [8], “Compound NOT metabolized”; in series [9] it was “Compound NOT metabolized”; in [10], “Compound NOT metabolized”; in [11], “Compound metabolized”; in series [12], “Compound NOT metabolized”. Moreover, the “Bacterial Biotransformation” value in [13], in [14], in [15] and in series [16] was “Compound NOT metabolized” throughout.
With `OC(CCN1CCCCC1)(c1ccccc1)C1CC2C=CC1C2` (configuration not stated) [BIPERIDEN], the “Bacterial Biotransformation” value in series [1] is on record as “Compound NOT metabolized”; in [2], “Compound metabolized”; in [3] it was “Compound metabolized”; in [4] it was “Compound NOT metabolized”; in [5], “Compound metabolized”; in [7], “Compound metabolized”. Further, the “Bacterial Biotransformation” value in [8] is reported as “Compound NOT metabolized”; in series [9], “Compound metabolized”; in [10], “Compound NOT metabolized”; in series [12], “Compound NOT metabolized”; in [13], “Compound metabolized”; in [14], “Compound metabolized”. For the same compound, the “Bacterial Biotransformation” value in series [15] and in [16] was “Compound metabolized” each time.
Consider `CC(=O)O[C@]1(C(C)=O)CC[C@H]2[C@@H]3C=C(Cl)C4=CC(=O)[C@@H]5C[C@@H]5[C@]4(C)[C@H]3CC[C@@]21C` [CYPROTERONE ACETATE], for which the “Bacterial Biotransformation” value in [1], in [2], in [3], in series [4], in [17] and in series [5] was “Compound metabolized” throughout. Further, the “Bacterial Biotransformation” value in series [7], in [8], in [9], in series [10], in series [11] and in series [18] was “Compound metabolized” in each case. For the same compound, the “Bacterial Biotransformation” value in [12], in [13], in series [14], in series [15] and in [16] was “Compound metabolized” each time.
Consider `CN1C[C@H](C(=O)N[C@]2(C)O[C@@]3(O)[C@@H]4CCCN4C(=O)[C@H](Cc4ccccc4)N3C2=O)C=C2c3cccc4[nH]cc(c34)C[C@H]21.CN1C[C@H](C(=O)N[C@]2(C)O[C@@]3(O)[C@@H]4CCCN4C(=O)[C@H](Cc4ccccc4)N3C2=O)C=C2c3cccc4[nH]cc(c34)C[C@H]21.O=C(O)C(O)C(O)C(=O)O` [ERGOTAMINE TARTRATE], for which the “Bacterial Biotransformation” value in series [1], in series [2], in [3], in series [4], in series [5] and in series [7] was “Compound metabolized” each time. In addition, the “Bacterial Biotransformation” value in series [8] was “Compound NOT metabolized”; in [9] it was “Compound NOT metabolized”; in series [10], “Compound metabolized”; in [12], “Compound NOT metabolized”; in [13], “Compound metabolized”; in series [15], “Compound metabolized”. For the same compound, the “Bacterial Biotransformation” value in [16] is “Compound metabolized”.
Consider `COC(=O)C1=C(C)NC(C)=C(C(=O)OC(C)C)C1c1cccc2nonc12` (configuration not stated) [ISRADIPINE], for which the “Bacterial Biotransformation” value in [1] is reported as “Compound metabolized”; in series [2] it was “Compound metabolized”; in [3] it was “Compound metabolized”; in series [4], “Compound NOT metabolized”; in series [5] it was “Compound metabolized”; in series [6], “Compound metabolized”. Further, the “Bacterial Biotransformation” value in [7] is reported as “Compound metabolized”; in series [8], “Compound NOT metabolized”; in series [9], “Compound metabolized”; in [10], “Compound metabolized”; in [12], “Compound metabolized”; in [13] it was “Compound metabolized”. Moreover, the “Bacterial Biotransformation” value in series [14], in [15] and in [16] was “Compound metabolized” each time.
With `CN(C(=O)CN(CCO)CC(=O)N(C)C(C)(C)Cc1ccccc1)C(C)(C)Cc1ccccc1` [OXETHAZAINE], the “Bacterial Biotransformation” value in series [1], in series [2], in series [3], in [4], in series [5] and in [7] was “Compound metabolized” each time. Besides, the “Bacterial Biotransformation” value in [8] is “Compound NOT metabolized”; in series [9], “Compound metabolized”; in [10], “Compound metabolized”; in [12] it was “Compound metabolized”; in series [13] it was “Compound metabolized”; in series [14], “Compound metabolized”. Moreover, the “Bacterial Biotransformation” value in [15] and in series [16] was “Compound metabolized” each time.
In the case of `CN1CCN(CC/C=C2/c3ccccc3Sc3ccc(S(=O)(=O)N(C)C)cc32)CC1` [THIOTHIXENE], the “Bacterial Biotransformation” value in series [1], in [2], in series [3], in [4], in [5] and in [7] was “Compound metabolized” each time. In addition, the “Bacterial Biotransformation” value is “Compound NOT metabolized” in series [8]; “Compound NOT metabolized” in [9]; “Compound metabolized” in series [10]; “Compound metabolized” in series [12]; “Compound metabolized” in series [13]; “Compound metabolized” in series [14]. Moreover, the “Bacterial Biotransformation” value in series [15] is listed as “Compound metabolized”; in series [16], “Compound NOT metabolized”.
Consider `CS(=O)(=O)O.O.O.O.O=C1Cc2cc(CCN3CCN(c4nsc5ccccc45)CC3)c(Cl)cc2N1` [ZIPRASIDONE MESYLATE], for which the “Bacterial Biotransformation” value in series [1] was “Compound NOT metabolized”; in series [2], “Compound NOT metabolized”; in series [3] it was “Compound metabolized”; in series [4], “Compound metabolized”; in series [5], “Compound metabolized”; in series [7], “Compound metabolized”. Besides, the “Bacterial Biotransformation” value in series [8] is reported as “Compound NOT metabolized”; in series [9], “Compound NOT metabolized”; in series [10], “Compound metabolized”; in series [12], “Compound NOT metabolized”; in series [13], “Compound metabolized”; in series [14], “Compound metabolized”. Further, the “Bacterial Biotransformation” value in [15] is “Compound NOT metabolized”; in [16], “Compound metabolized”.
